Earlier results as cited in patent US9597409B2, “Methods of treating cancer” (Abraxis BioScience, LLC, priority 2010, dated 2017).

System: patients with locally advanced or metastatic NSCLC
Settings: single agents commonly used to treat NSCLC

## CCC1=C[C@@H]2CN(C1)Cc1c([nH]c3ccccc13)[C@@](C(=O)OC)(c1cc3c(cc1OC)N(C)[C@H]1[C@@](O)(C(=O)OC)[C@H](OC(C)=O)[C@]4(CC)C=CCN5CC[C@]31[C@@H]54)C2 [vinorelbine]
  response rate (RR): 29.4%
